Entries after “also recorded” stand apart in the source; their conditions may differ.
Assays:
[1] = target: cortical Aβ plaques in AD frontal cortex sections (Homo sapiens, UniProt P05067); test: Autoradiography on AD frontal cortex sections with IHC correlation; format: binding; settings: 10 nM tracer, 60 min, 12 μm AD frontal cortex sections
Method: Frozen AD frontal cortex sections (12 μm) were obtained using a TBS Minotome PLUS Cryostat. The tissue sections were thaw-mounted onto Superfrost Plus (Fisherbrand 12-550-15 (Fisherbrand, Leicestershire, UK)) microscope slides, allowed to air dry for 10 to 15 min, and stored at −80°C. For autoradiography, brain sections were brought to room temperature for 5 min and then pre-incubated in assay buffer (30 mM Tris-HCl, pH 7.4 + 0.1% BSA) for 10 min at RT. Sections were incubated with ^18F-7B (300 μL/slide; 10 nM) in the assay buffer for 60 min at room temperature. For determining nonspecific binding, adjacent sections were incubated in the additional presence of 2.5 μM cold ligand 7A. Sections were then washed at RT for 1 min in 30 mM Tris-HCl pH 7.4, 2 min in 70% ethanol/30 mM Tris-HCl, 1 min in 30% ethanol/30 mM Tris-HCl, and 1 min in 30 mM Tris-HCl (washing protocol using literature precedents. Sections were then dried and exposed to phosphor-imaging screen (BAS-MS 2025) for 30 min. Autoradiography images were obtained on a Fuji Bio-Imaging System FLA-7000 (Tokyo, Japan) and analyzed using MultiGauge software (Fuji, Tokyo, Japan). Following exposure to a phosphor-imaging screen, the sections were then blocked for 60 min at room temperature with 3% milk-0.25% Tween 20-PBS buffer. […]

Aβ plaques = Aβ plaques (Homo sapiens, UniProt P05067); test: MicroPET/CT imaging in APP/PS1 versus WT mice; format: in vivo
Sequence of Aβ plaques (P05067 672-711 limits assumed): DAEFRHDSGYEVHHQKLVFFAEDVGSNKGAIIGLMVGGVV
Method: Following anesthesia, the mice were secured with their heads in the center of the field of view, fixed in the scanner in a prone head-first position (HFP), and placed in an acrylic-imaging tray. MicroPET imaging was performed using Inveon PET/CT scanner (Siemens Medical Solutions, Malvern, PA, USA) following intravenous tail-vein injection of HPLC-purified [^18F]7B (12.95 MBq; 28 μL; 35% ethanol in saline) employing the catheter system in a slow bolus, followed by flushing with isotonic saline solution. PET dynamic data acquisition was performed over 75 min starting immediately following injection of the tracer. The emission data were normalized and corrected for attenuation, scatter, and decay. Attenuation correction was obtained using the co-registered CT data. The image volume consisted of 256 × 256 × 159 voxels, with a size of 0.39 × 0.39 × 0.8 mm^3 per voxel for the Inveon scanner. For anatomical visualization, PET images were co-registered with CT images from an Inveon PET/CT scanner. For analysis, brain uptake (Bq/L) was normalized to injected dose and weight of animals. […] Additionally, SUV values in time-activity curves were normalized to the average activity measured in those regions between 1 to 2 min post-injection. All image data were processed and analyzed using Inveon Research Workspace 4.1 software (Siemens, Malvern, PA, USA). […]

[2] = Biodistribution studies in normal mice; format: in vivo, FVB mice; settings: for Blood uptake / Bone uptake / Brain uptake / Kidney uptake / Liver uptake: FVB mice, n = 3
Method: All animal procedures were approved by the Washington University Animal Studies Committee. Pharmacokinetics of ^18F-7B in brain and other critical tissues of normal male 12-week-old FVB (wild type (WT); 28 to 36 g) mice were determined as previously described. Briefly, ^18F-7B (740 kBq) was dissolved in 100-μL saline containing 10% ethanol. All animals were anesthetized by isofluorane inhalation and injected with radiotracer ^18F-7B (740 kBq, 100 μL) via bolus injection through a tail vein. Animals were sacrificed by cervical dislocation under anesthesia at 5, 30, 60, and 120 min after injection (n = 3 each). Blood samples were obtained by cardiac puncture, organs then harvested rapidly, and all tissue samples analyzed for γ-activity. Data are expressed as the percentage injected dose (%ID) per gram of tissue (tissue kBq (injected kBq)^−1 (g tissue)^−1 × 100).

[3] = Metabolite analysis in human serum (radio-HPLC, radio-TLC); format: in vitro ADME; settings: 37°C up to 60 min, radio-HPLC and radio-TLC
Method: Human serum (Sigma-Aldrich, St. Louis, MO, USA) was thawed. Serum (100 μL) was taken, diluted with saline to 10%, and incubated with HPLC-purified fraction of ^18F-7B (100 μCi each) at 37°C for 30 and 60 min. Samples were periodically withdrawn and analyzed on radio-HPLC using eluent mixture described above and radio-TLC using an eluent mixture of ethanol/saline in a ratio of 90:10 (to allow mobility of parental compound and other hydrophobic metabolites off the surface to analyze protein binding) and 10:90 (to analyze hydrophilic metabolites).

Sequence of cortical Aβ plaques in AD frontal cortex sections (P05067 672-711 limits assumed): as above

labeling of Aβ plaques in autoradiography [1]: showed labeling of cortical Aβ plaques
retention in brain/frontal cortex of transgenic mice compared with WT (Aβ plaques; APP/PS1 vs age-matched WT mice, 22.6 months, dynamic PET 1 to 75 min, i.v.): significantly higher retention
Blood uptake ([2]; 5 min post i.v.): 3.18 ± 0.23 %ID/g
Bone uptake ([2]; 5 min post i.v.): 1.61 ± 0.20 %ID/g
Brain uptake ([2]; 5 min post i.v.): 7.23 ± 0.47 %ID/g
Kidney uptake ([2]; 5 min post i.v.): 6.72 ± 0.44 %ID/g
Liver uptake ([2]; 5 min post i.v.): 16.22 ± 1.43 %ID/g
Blood uptake ([2]; 30 min post i.v.): 2.51 ± 0.09 %ID/g
Bone uptake ([2]; 30 min post i.v.): 2.08 ± 0.13 %ID/g
Brain uptake ([2]; 30 min post i.v.): 2.27 ± 0.13 %ID/g
Kidney uptake ([2]; 30 min post i.v.): 2.83 ± 0.09 %ID/g
Liver uptake ([2]; 30 min post i.v.): 5.21 ± 0.08 %ID/g
Blood uptake ([2]; 60 min post i.v.): 2.40 ± 0.17 %ID/g
Bone uptake ([2]; 60 min post i.v.): 3.41 ± 0.37 %ID/g
Brain uptake ([2]; 60 min post i.v.): 2.00 ± 0.15 %ID/g
Kidney uptake ([2]; 60 min post i.v.): 2.20 ± 0.07 %ID/g
Liver uptake ([2]; 60 min post i.v.): 3.44 ± 0.20 %ID/g
Blood uptake ([2]; 120 min post i.v.): 1.86 ± 0.05 %ID/g
Bone uptake ([2]; 120 min post i.v.): 5.27 ± 0.34 %ID/g
Brain uptake ([2]; 120 min post i.v.): 1.55 ± 0.01 %ID/g
Kidney uptake ([2]; 120 min post i.v.): 1.59 ± 0.03 %ID/g
Liver uptake ([2]; 120 min post i.v.): 2.73 ± 0.16 %ID/g
brain uptake clearance ratio 5 min/120 min ([2]; %ID/g brain, normal mice): 4.66
defluorination indicated by bone accumulation ([2]; as a function of time over 2 h, normal mice): slight defluorination
SMILES: CN(C)c1ccc(/C=C/c2nc3ccc(OCC[18F])cc3s2)cn1 [^18F-7B, (E)-5-(2-(6-(2-[^18F]-fluoroethoxy)-benzo[d]thiazol-2-yl)vinyl)-N,N-dimethylpyridin-2-amine]
retention in extracerebral regions (Aβ plaques; nasal and eye cavities, microPET/CT): considerable retention in extracerebral regions
stability in human serum [3]: presence of parental species in human serum; also recorded: presence of primarily the parental compound

Source: article PMC4478171, “Synthesis, characterization, and preclinical validation of a PET radiopharmaceutical for interrogating Aβ (β-amyloid) plaques in Alzheimer’s disease” (EJNMMI Research, 2015)
